Experimental data reported in patent US20220233624A9, “ANTI-CANCER AND ANTI-PROLIFERATIVE COMPOSITIONS, AND METHODS FOR THEIR USE IN TREATING CANCER” (Natreon, Inc., priority 2020, published 2022).
Where “and” joins values, the source holds several entries; their conditions need not be identical. Equal entries are not always repeated. Where two headings read alike, the source gives them in different places.

Experiments:
[1] = test system: Pancreatic cancer (Panc-1) cells; experiment: Anti-proliferation assay on pancreatic cancer cells; type: cell-based; settings: Homo sapiens
Method: Cells were plated at 1.25 k/well in 384 well plates. […] Anti-proliferative assays were generally performed as described in Example I above, in triplicate, with detection reagent CellTiterGlo. Tables 98-99 show data for controls for assays on histiocytic lymphoma (U-937) cells, and that the data passed quality control parameters. Tables 101-102 show data for controls for assays on pancreatic cancer (Panc-1) cells, and that the data passed quality control parameters. […] The assay is generally as described in Example I.

[2] = test system: TN breast cancer PDCs SB 30750; experiment: Anti-proliferation assay on TN breast cancer PDCs SB 30750; type: cell-based; settings: Homo sapiens
Method: In this Example, AyuFlex®, Capros®, and Ayuric® were each applied to different PDCs than previous tests, TN breast cancer PDCs SB 30750, and tested via the anti-proliferation assay described above. […] Incubation times were 72 hours.

[3] = test system: Breast Cancer PDCs, ER/PR− Her2+ (Her2+); experiment: Anti-proliferation assay on breast cancer Her2+ PDCs; type: cell-based, human; settings: drug alone @ 10 uM; 10 µM
Method: (§1) The outermost rows/columns of the plates were filled with PBS (pH 7.4) to avoid an edge-effect and were considered as blanks. Standardized aqueous extracts identified in Table 2 were prepared in main stock solutions by dissolving 1 mg of extract in 1 ml PBS (phosphate-buffered saline, pH 7.4). […] The plate was incubated in a CO2 incubator for 0/N incubation for 24 hours. […] Once extracts were added to incubated cells and mixed gently, the plate was given a brief spin and incubated in the CO2 incubator for 72 hours. The plate was removed from the incubator and 10 ul of detection reagent (CellTiterGlo®; Promega Corporation, Wisconsin, USA) added to each well of the 384 well plate. […] The assay described above is a two-dimensional (2D) assay.

[4] = test system: Ovarian cancer (OVCAR-3) cells; experiment: Anti-proliferation assay on ovarian cancer cells; type: cell-based; settings: Homo sapiens
Method: Cells were plated at 1.25 k/well in 384 well plates. […] Anti-proliferative assays were generally performed as discussed in Example I above, in triplicate, with detection reagent CellTiterGlo. Tables 80-82 show data for controls for assays on prostate cancer (PC-3 cells), and that the data passed quality control parameters. Tables 83-85 show data for controls for assays on ovarian cancer (OVCAR-3 cells), and that the data passed quality control parameters.

[5] = test system: CLL (Chronic lymphocytic leukemia) PDCs; experiment: Anti-proliferation assay on CLL PDCs; type: cell-based, human; settings: for inhibition at 10 µM: Homo sapiens
Method: as §1

[6] = test system: Glioma PDCs (Glioblastoma Grade IV); experiment: Anti-proliferation assay (CellTiterGlo, 72 h) on glioma PDCs; type: cell-based, human; settings: drug alone @ 10 uM; for inhibition at 10 µM: Homo sapiens
Method: as §1

[7] = test system: Breast Cancer PDCs, ER/PR+ Her2 equivocal (HR+); experiment: Anti-proliferation assay on breast cancer HR+ PDCs; type: cell-based, human; settings: drug alone @ 10 uM; for inhibition at 10 µM: Homo sapiens
Method: as §1

AML cell line HL60 = experiment: Anti-proliferation assay on HL60 AML cells; type: cell-based; settings: for inhibition at 10 µM: 72 h, Plate 1
Method: 2500 cells were plated per well in 384 well plates. […] CellTiter Glo was used as a detection reagent. Extracts were incubated with the AML HL60 cells for 72 hours.

[8] = test system: Acute Promyelocytic Leukemia PDCs (APL-SB 46120); experiment: Anti-proliferation assay on APL subtype AML PDCs; type: cell-based; settings: Homo sapiens
Method: In this Example, AML drugs were used as disease specific controls.
The AML PDCs evaluated below were an Acute Promyelocytic Leukemia (APL, APML) subtype, APL-SB 46120, from a human subject.
IC25 values were calculated using IC50 and hill slope. […] The drugs were used in these concentrations on the new APL subtype cells as described further below. […]

[9] = test system: TN Breast Cancer cell line MDAMB-231; experiment: Anti-proliferation assay on MDAMB-231 cells (72 h and 120 h); type: cell-based; settings: Homo sapiens, MDA-MB-231, 10 uM
Method: Also, AyuFlex®, Capros®, and Ayuric® were tested in the anti-proliferative assay discussed above in the TN Breast Cancer cell line MDAMB-231. AyuFlex®, Capros®, and Ayuric® were incubated for 72 hours and 120 hours. The dose-response efficacy of AyuFlex®, Capros®, and Ayuric® after a 72-hour period of incubation was similar to that observed after a 120-hour period of incubation with the MDAMB-231 cells. Without being bound by theory, possibly this was due to saturation of cell growth at the 120-hour time-point.

[10] = 10 uM, 72 h, read-out: % Inhibition Average (SD)
[11] = 10 uM, 72 h, read-out: % Inhibition n1
[12] = 10 uM, 72 h, read-out: % Inhibition n2
[13] = 10 uM, 72 h, read-out: % Inhibition n3
[14] = drug 10 uM, read-out: inhibition
[15] = read-out: % Inhibition, single replicates

Work on COc1cccc2c1C(=O)c1c(O)c3c(c(O)c1C2=O)C[C@@](O)(C(=O)CO)C[C@@H]3O[C@H]1C[C@H](N)[C@H](O)[C@H](C)O1 [Doxorubicin, doxorubicin] yielded an inhibition at 10 µM [1, 10] of 94%, an inhibition at 10 µM [1, 11] of 94% and an inhibition at 10 µM [1, 12] of 94%. For the same compound, the inhibition at 10 µM [1, 13] was 95%, the inhibition at 10 µM [1, 14] was 94% and the inhibition at 10 µM ([2]; 10 uM, 72 h, read-out: % Inhibition Avg) was 68%. The inhibition at 10 µM [2, 11] was 78%, the inhibition at 10 µM [2, 12] was 68% and the inhibition at 10 µM [2, 13] was 58%. For the same compound, the inhibition at 10 µM ([2]; read-out: % Inhibition Average (SD)) was 68%, the inhibition at 10 µM ([2]; read-out: % Inhibition n1) was 78% and the inhibition at 10 µM ([2]; read-out: % Inhibition n2) was 68%. The inhibition at 10 µM ([2]; read-out: % Inhibition n3) was 58%, the “% Inhibition Avg” value [3] was 60% and 96% and the “% Inhibition, single replicates” value [3] was 62% and 58% and 95% and 97%. For the same compound, the inhibition at 10 µM [4, 10] was 76%, the inhibition at 10 µM [4, 11] was 74% and the inhibition at 10 µM [4, 12] was 75%. It also gave an inhibition at 10 µM [4, 13] of 79%, an inhibition at 10 µM [4, 14] of 76% and an inhibition at 10 µM ([5]; Doxorubicin @ 10 uM, read-out: % Inhibition Avg) of 2%. The inhibition at 10 µM ([5]; Doxorubicin @ 10 uM, read-out: % Inhibition n1) was 16%, the inhibition at 10 µM ([5]; Doxorubicin @ 10 uM, read-out: % Inhibition n2) was -9% and the inhibition at 10 µM ([5]; Doxorubicin @ 10 uM, read-out: % Inhibition n3) was 1%. For the same compound, the inhibition at 10 µM ([5]; drug alone @ 10 uM, read-out: % Inhibition Avg) was 55%, the inhibition at 10 µM ([5]; drug alone @ 10 uM, read-out: % Inhibition, single replicates) was 50% and the “% Inhibition, single replicates” value ([5]; drug alone @ 10 uM, 10 µM) was 61%. For the same compound, the “anti-cancer activity (in words)” value ([5]; extracts 100, 30, 10 ug/ml, doxorubicin 10 uM) was “relatively low inhibitory activity”, the inhibition at 10 µM ([6]; read-out: % Inhibition Avg) was 82% and the inhibition at 10 µM [6, 15] was 81%. The “% Inhibition Avg” value ([6]; 10 µM) was 97%, the “% Inhibition, single replicates” value ([6]; 10 µM) was 83% and 98% and 97% and 96% and the inhibition at 10 µM ([7]; read-out: % Inhibition Avg) was 78%. For the same compound, the inhibition at 10 µM [7, 15] was 75%, the “% Inhibition Avg” value ([7]; 10 µM) was 77% and the “% Inhibition, single replicates” value ([7]; 10 µM) was 81%. It also gave an IC25 (AML cell line HL60; HL60 AML cells, potential dosing for further experiments) of 59 nM, an inhibition at 3 µM (AML cell line HL60; Homo sapiens, HL-60) of at least 90% and an inhibition at 10 µM (AML cell line HL60; Homo sapiens, HL-60, read-out: % Inhibition Average (SD)) of 0%. It also gave an inhibition at 10 µM (AML cell line HL60; Homo sapiens, HL-60, read-out: % Inhibition n1) of 100%, an inhibition at 10 µM (AML cell line HL60; Homo sapiens, HL-60, read-out: % Inhibition n2) of 100% and an inhibition at 10 µM (AML cell line HL60; Homo sapiens, HL-60, read-out: % Inhibition n3) of 100%. It also gave an IC50 (AML cell line HL60; Homo sapiens, HL-60, dose-response curve, FIG. 35) of 79 nM, an inhibition at 10 µM ([8]; Plate 1 quality control, read-out: % Inhibition Average) of 96% and an inhibition at 10 µM ([8]; Plate 1 quality control, read-out: % Inhibition n1) of 97%. It also gave an inhibition at 10 µM ([8]; Plate 1 quality control, read-out: % Inhibition n2) of 96%, an inhibition at 10 µM ([8]; Plate 1 quality control, read-out: % Inhibition n3) of 95% and an inhibition at 10 µM ([8]; Plate 2 quality control, read-out: % Inhibition Average) of 97%. The inhibition at 10 µM ([8]; Plate 2 quality control, read-out: % Inhibition n1) was 98%, the inhibition at 10 µM ([8]; Plate 2 quality control, read-out: % Inhibition n2) was 97% and the inhibition at 10 µM ([8]; Plate 2 quality control, read-out: % Inhibition n3) was 97%. For the same compound, the inhibition at 10 µM ([9]; 72 hour incubation, read-out: % Inhibition Avg) was 75%, the inhibition at 10 µM ([9]; 72 hour incubation, read-out: % Inhibition n1) was 78% and the inhibition at 10 µM ([9]; 72 hour incubation, read-out: % Inhibition n2) was 73%. The inhibition at 10 µM ([9]; 72 hour incubation, read-out: % Inhibition n3) was 73%, the inhibition at 10 µM ([9]; 120 hour incubation, read-out: % Inhibition Avg) was 92% and the inhibition at 10 µM ([9]; 120 hour incubation, read-out: % Inhibition n1) was 94%. For the same compound, the inhibition at 10 µM ([9]; 120 hour incubation, read-out: % Inhibition n2) was 91% and the inhibition at 10 µM ([9]; 120 hour incubation, read-out: % Inhibition n3) was 92%.
